From patent US11214803B2, “Modulators of YAP1 expression” (Ionis Pharmaceuticals, Inc., priority 2019, dated 2022) come the findings set out here.

The data set deals with Yap1 mRNA. The data set can be described thus: Dose-dependent inhibition of human Yap1 in A-431 cells (Example 7, 10,000 cells per well, RTS36584). The data set is classed as cell-based. To be noted: free uptake. A digest of the protocol: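 A-431 cells at 10,000 per well received modified oligonucleotides by free uptake at several doses. After about 48 hours, Yap1 mRNA was quantified with primer-probe set RTS36584, normalized to RIBOGREEN total RNA and expressed as % untreated control. IC50 came from linear regression on a log/linear plot.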

The mark [1] stands for this setting: Table 57, 15.6 nM, A-431 cells 10,000 cells per well, 48 hours.
Where [2] appears, read: Table 57, 62.5 nM, A-431 cells 10,000 cells per well, 48 hours.
Where [3] appears, read: Table 57, 4000.00 nM, A-431 cells 10,000 cells per well, 48 hours.
[4] abbreviates: Table 57, A-431 cells 10,000 cells per well.
[5] abbreviates: Table 58, 15.6 nM, A-431 cells 10,000 cells per well, 48 hours.
[6] abbreviates: Table 58, 62.5 nM, A-431 cells 10,000 cells per well, 48 hours.
The mark [7] stands for this setting: Table 58, 4000.00 nM, A-431 cells 10,000 cells per well, 48 hours.
[8] abbreviates: Table 58, A-431 cells 10,000 cells per well.

pIC50: −log10 of the molar value. Strand notation (5' to 3'): a small letter for the sugar, then the base; units joined by * are phosphorothioate-linked, units joined directly phosphodiester-linked; [ ] holds rarer units or linkages, { } end groups; capitals alone tell only the bases. k = constrained ethyl (cEt); [5mC] = 5-methylcytosine; d = 2'-deoxy (DNA)

On to “958481 (kG*k[5mC]*kA*dA*d[5mC]*dT*dG*dG*d[5mC]*dT*dT*dA*dT*kG*kG*kA; antisense) [compound 958481]”, for which the “Yap1 mRNA, % UTC” value by setting is: under setting [1], 86 % UTC; under setting [2], 62 % UTC; under setting [3], 14 % UTC. Under setting [4], this substance gave a pIC50 of 7.00.
On the same counts, the results for “958486 (kT*kT*kA*dG*dA*dG*d[5mC]*d[5mC]*dA*dA*d[5mC]*dT*dG*kT*kG*kA; antisense) [compound 958486]” are 87 % UTC, 73 % UTC, 22 % UTC and 6.70.
For “958556 (k[5mC]*kA*kA*d[5mC]*d[5mC]*dA*dA*d[5mC]*dT*dA*dT*dT*dA*k[5mC]*kT*kT; antisense) [compound 958556]” the same measures were 103 % UTC, 95 % UTC, 34 % UTC and 6.30.
On the same counts, the results for “958491 (kA*k[5mC]*kT*dA*dA*dA*dT*dG*d[5mC]*dT*dG*dT*dG*kA*k[5mC]*kA; antisense) [compound 958491]” are 94 % UTC, 65 % UTC, 10 % UTC and 7.00.
For “958727 (kA*kT*k[5mC]*dT*dG*dT*d[5mC]*dA*dG*dT*dT*dA*dT*k[5mC]*k[5mC]*kT; antisense) [compound 958727]”, the “Yap1 mRNA, % UTC” value under setting [5] was determined as 90 % UTC; the “Yap1 mRNA, % UTC” value under setting [6] is given as 42 % UTC; the “Yap1 mRNA, % UTC” value under setting [7] is given as 8 % UTC. This substance showed a pIC50 under setting [8] of 7.00.
Turning to “958506 (kG*k[5mC]*kA*dG*dA*dT*dA*dA*dT*d[5mC]*dG*dA*dG*kA*kT*kT; antisense) [compound 958506]”, the “Yap1 mRNA, % UTC” value came to 80 % UTC under setting [1], 55 % UTC under setting [2] and 10 % UTC under setting [3]. The substance further gave a negative logarithm of the IC50 (pIC50) under setting [4] of 7.00.
Turning to “958615 (kT*kG*kG*dT*d[5mC]*dT*dT*dG*dT*dT*d[5mC]*dT*dT*kA*kT*kG; antisense) [compound 958615]”, the “Yap1 mRNA, % UTC” value is recorded as 91 % UTC (15.6 nM, A-431 cells, 10,000 cells per well, approximately 48 hours); 60 % UTC (62.5 nM, A-431 cells, 10,000 cells per well, approximately 48 hours); 18 % UTC (4000.00 nM, A-431 cells, 10,000 cells per well, approximately 48 hours). Also, the pIC50 (A-431 cells, approximately 48 hours, linear regression on log/linear plot) is 7.00.
Turning to “958757 (kG*kT*kG*dA*dT*d[5mC]*dT*dG*d[5mC]*dA*d[5mC]*dA*dT*kT*kG*kT; antisense) [compound 958757]”, the “Yap1 mRNA, % UTC” value came out at 110 % UTC under setting [5], 89 % UTC under setting [6] and 27 % UTC under setting [7]. Under setting [8], the pIC50 was 6.52.
With “958377 (antisense kG*k[5mC]*kT*dG*dG*dG*dA*dT*dT*dG*dA*dT*dA*kT*kT*k[5mC]) [compound 958377]”, the “Yap1 mRNA, % UTC” value by setting is: (Table 56, 15.6 nM, A-431 cells 10,000 cells per well, 48 hours) 90 % UTC; (Table 56, 62.5 nM, A-431 cells 10,000 cells per well, 48 hours) 60 % UTC; (Table 56, 4000.00 nM, A-431 cells 10,000 cells per well, 48 hours) 17 % UTC. Also, the pIC50 (Table 56, A-431 cells 10,000 cells per well) was 6.89.
For the substance “958532 (kG*kA*kA*dG*dT*dA*dG*dG*dA*dG*d[5mC]*dA*dA*kG*kT*k[5mC]; antisense) [compound 958532]”, the “Yap1 mRNA, % UTC” value is 88 % UTC under setting [5], 44 % UTC under setting [6] and 7 % UTC under setting [7]. The substance further showed a pIC50 under setting [8] of 7.00.
For “958547 (k[5mC]*kA*k[5mC]*dA*dT*dA*d[5mC]*dT*d[5mC]*dT*dA*dG*dT*kT*kA*k[5mC]; antisense) [compound 958547]” the same measures were 98 % UTC, 74 % UTC, 22 % UTC and 6.70.

Usually pIC50 stands for the negative decadic logarithm of the IC50, by convention in mol/L. Read a high pIC50 as a low IC50.
